The nature of series [1]: Acute oral toxicity in mice. It is filed as in vivo. The following applies: 2 g/kg L-carnitine or 500 mg/kg hexacosanol, alone or in combination.
Series [2] concerns atherosclerotic lesions (abdominal aorta). Kind of series: Experimental atherosclerosis tests (atherogenic diet). In kind it is in vivo, Wistar male rats. The following applies: abdominal aorta thickness and Sudan IV staining, 1- to 5-point score. As for the experimental part: D2 200 m STU/g diet. The anti-atherogenic effect of both L-carnitine and hexacosanol were evaluated by using morphometric methods to measure the thickness of the abdominal aorta and the intensity of the staining induced by Sudan IV, with a 1- to 5-point scoring system, according to the degree of severity.

Series [3] relates to left ventricular arrhythmias due to myocardial anoxia. Kind of series: Cardiac anoxia induced by coronary ligation (left ventricular arrhythmias). It is filed as in vivo, Male Wistar rats. The following applies: for Start of arrhythmias / Total ectopic contractions during 30 min after coronary ligation: L-carnitine 100 mg/kg, hexacosanol 10 mg/kg or both into left ventricle 15 min before ligation; for Start of arrhythmias: controls 4-7; for Total ectopic contractions during 30 min after coronary ligation: controls 992 ± 118; for ability to reduce ectopic contractions (in words): administered alone. The protocol: These tests were performed to evaluate the protective action of L-carnitine and hexacosanol and their combination on left ventricular arrhythmias due to myocardial anoxia induced by coronary ligation according to the technique described by Selych et cal. (Angiology 11-398, 1960) and by Clark et al. (J Pharmacol Methods 3-357, 1980). Male Wistar rats with a mean body weight of 350-400 g were submitted to surgical occlusion of the left coronary artery. Arrhythmias set in within 4-7 min of coronary ligation. Ventricular ectopic contractions were then counted during a period of 30 min both in a group of control rats and in the groups of rats receiving slow injection of a solution containing L-carnitine (100 mg/kg), hexacosanol (10 mg/kg) or the two substances in combination at the same doses into the left ventricle 15 min before ligation.

Series [4] in a line: Prolonged daily administration (30 days) tolerability, body weight, blood chemistry and histology. In kind it is in vivo, rats and mice. The following applies: daily for 30 days; carnitine 250 mg/kg or hexacosanol 20 mg/kg, alone or in combination. The text has this:
Moreover, no abnormalities were found at histological examination of the parenchyma of the main organs (heart, lungs, kidneys, adrenal glands and pancreas).

Series [5] in a line: Acute oral toxicity in rats. It is filed as in vivo. The note with it: 2 g/kg L-carnitine or 500 mg/kg hexacosanol, alone or in combination.
The test system of series [6] is ATP content of the papillary muscle. Kind of series: ATP concentrations in papillary muscle of rabbits with induced hypoxia. In kind it is in vivo, New Zealand rabbits. The note with it: L-carnitine 100 mg/kg, hexacosanol 10 mg/kg or both, i.v. daily for 3 days; for ATP content after hypoxia: 60 min of hypoxia, controls 0.45 ± 0.03; for ATP content before hypoxia: normal perfusion 90 min, controls 1.65 ± 0.28. The protocol: These tests were performed in New Zealand rabbits with a mean body weight of 2 kg, receiving daily intravenous injections of a solution containing 100 mg/kg of L-carnitine or 10 mg/kg of hexacosanol, or of the two substances combined at the same doses, for 3 consecutive days. A group of animals received no treatment and served as the control group.
All the animals treated were sacrificed along with the controls at the end of the third day of treatment two hours after the last injection. The hearts were removed and equal sections of papillary muscle measuring 1 mm in diameter and 4-5 mm in thickness were isolated. These tissues were perfused in a thermostatic bath with a (100%) saturated O2 solution. Experimental hypoxia conditions were induced by introducing N2 (100%) into the bath in place of O2. […] The analysis was done on tissue samples maintained under normal perfusion conditions for 90 min and after 60 min of hypoxia.

The next series has as its system blood cholesterol. Kind of series: Experimental cholesterolaemia tests. In kind it is in vivo. The note with it: for total cholesterol: daily for six weeks with cholesterolaemia-lowering diet, L-carnitine 100 mg/kg, hexacosanol 10 mg/kg or both, controls 95.2 ± 5.4, hypercholesterolaemic controls 285.7 ± 11.2; for cholesterolaemia-lowering action (in words): six weeks. The text has this: In experimental cholesterolaemia, too, a marked synergistic effect of the L-carnitine plus hexacosanol combination was detected. In these tests, the experimental cholesterolaemia was induced according to the method described by Sirtori (Sirtori CR, Atherosclerosis 26-27, 1977). Treatment both With L-carnitine and hexacosanol, as well as with the two compounds in combination, was continued daily for six weeks, in conjunction with a cholesterolaemia-lowering diet. On completing the six weeks of treatment, blood cholesterol was assayed both in control animals put on a cholesterolaemia-lowering diet alone and in animals treated with L-carnitine, or with hexacosanol, or with the two compounds in combination. Using the assay method described by Roschlan (Roschlan P, Clin Chem Clin Biochem 12: 403, 1975).

The test system of a further series is platelet aggregation. Kind of series: Platelet aggregation inhibition tests (collagen-induced). It is filed as cell-based, healthy volunteers. The note with it: collagen 2.5 ng/mL, 10 min incubation. The protocol: The tests were performed using plasma from healthy volunteers containing at least 300,000 platelets/mm^3.
The platelet count was done using a CA 580A Platelet Counter (Delcon). Platelet aggregation was induced using collagen as the aggregating agent at doses of 2.5 and 5 ng/mL according to the technique described by Born and Cross (Born YVR, Cross M, J Physiol 26: 25, 1963).
Platelet aggregation was determined photometrically (Born VJR, Nature 194: 927, 1962) using an Elvi 840 aggregometer.
Platelet aggregation was measured in basal conditions and after 10 min of incubation with L-carnitine, hexacosanol and the L-carnitine-hexacosanol combination.

For `C[N+](C)(C)C[C@H](O)CC(=O)[O-]` [L-carnitine], in series [1], the mortality result was “without any mortality” and the signs of toxicity result is “without any evident signs of toxicity”. The “severity/occurrence of atherosclerotic lesions (in words)” value in series [2] is reported as “capable of reducing the severity of the atherosclerotic lesions”. In series [3], the Start of arrhythmias was 4 to 7 min, the “Total ectopic contractions during 30 min after coronary ligation” value was 860 ± 202 and the “ability to reduce ectopic contractions (in words)” value is “only a very limited ability to reduce ectopic contractions”. Also, in series [4], the “signs of toxic reactions or of poor tolerability” value is listed as “failed to produce any signs of toxic reactions or of poor tolerability”. For the same compound, in series [5], the mortality entry is “without any mortality” and the signs of toxicity entry is reported as “without any evident signs of toxicity”. In series [6], this compound displayed an ATP content after hypoxia of 0.67 ± 0.02 µmol/g tissue and an ATP content before hypoxia of 1.77 ± 0.25 µmol/g tissue. In the series on blood cholesterol, the total cholesterol stood at 265.5 ± 6.1 mg/dL and the “cholesterolaemia-lowering action (in words)” value is reported as “fairly modest”. Further, the “effect on platelet aggregation induced by collagen (in words)” value in the series on platelet aggregation is recorded as “not changed”.

Take `CCCCCCCCCCCCCCCCCCCCCCCCCCO` [Hexacosanol]: in series [2], the “severity/occurrence of atherosclerotic lesions (in words)” value is given as “capable of reducing the severity of the atherosclerotic lesions”. In series [3], the Start of arrhythmias was 5 to 7 min, the “Total ectopic contractions during 30 min after coronary ligation” value is 810 ± 190 and the “ability to reduce ectopic contractions (in words)” value was “only a very limited ability to reduce ectopic contractions”. In series [6], this compound had an ATP content after hypoxia of 0.77 ± 0.05 µmol/g tissue and an ATP content before hypoxia of 1.7 ± 0.3 µmol/g tissue. In addition, in the series with blood cholesterol, the total cholesterol was found to be 268.5 ± 5.6 mg/dL and the “cholesterolaemia-lowering action (in words)” value is reported as “fairly modest”. Moreover, in the series on platelet aggregation (Homo sapiens, Platelet, 10 min, read-out: ED50, inhibition of platelet aggregation induced by collagen), the IC50 was 5.5 ng/mL. Further, in the series with platelet aggregation, the “effect on platelet aggregation induced by collagen (in words)” value is listed as “only partly inhibiting the platelet aggregation”.
